In patent US20140005174A1, “INDOLE DERIVATIVES USEFUL AS CCR2 ANTAGONISTS” (priority 2011, published 2014):

Biological target: T1, human CCR2 (Homo sapiens, UniProt P41597)
T1 construct: expressed in transfected cells; host or cells: Ba/F3 cells (membranes)
Test: CCR2 Membrane Binding Assay (SPA radio-ligand binding, 125I-rhMCP-1)
Details: membranes from Ba/F3 cells transfected with human CCR2, 0.03 nM 125I-rhMCP-1
Procedure: The radio-ligand binding assay was done using scintillation proximity assay (SPA) technology. Briefly, membranes (1 μg per assay point) from Ba/F3 cells transfected with human CCR2, and wheat germ agglutinin-coated SPA beads (80 μg per point; Amersham, Arlington Heights,Ill.), were pre-incubated for 30 min at room temperature in CCR2 buffer (50 mM HEPES (pH=7.4), 10 mM MgCl2, 10 mM NaCl, 1 mM CaCL2, 0.1% BSA,10 μg/ml Saponin). At this point pre-bound SPA bead, membrane complex was incubated at room temperature for 4 h with varying concentrations of punitive CCR2 antagonists (in 1% DMSO, final) and 0.03 nM ^125I-rhMCP-1 in CCR2 Buffer (S.A. 2200 Ci/mmol, PerkinElmer Life and Analytical Science, Boston, Mass.; NEX332). Binding competition was measured using a 1450 Microbeta Trilux counter(Wallac, Gaithersburg, Md.). Binding constants (IC50 and slope) were calculated using GraphPad Prism software(GraphPad Software, Inc., La Jolla Calif.).

T1 sequence (P41597 whole entry): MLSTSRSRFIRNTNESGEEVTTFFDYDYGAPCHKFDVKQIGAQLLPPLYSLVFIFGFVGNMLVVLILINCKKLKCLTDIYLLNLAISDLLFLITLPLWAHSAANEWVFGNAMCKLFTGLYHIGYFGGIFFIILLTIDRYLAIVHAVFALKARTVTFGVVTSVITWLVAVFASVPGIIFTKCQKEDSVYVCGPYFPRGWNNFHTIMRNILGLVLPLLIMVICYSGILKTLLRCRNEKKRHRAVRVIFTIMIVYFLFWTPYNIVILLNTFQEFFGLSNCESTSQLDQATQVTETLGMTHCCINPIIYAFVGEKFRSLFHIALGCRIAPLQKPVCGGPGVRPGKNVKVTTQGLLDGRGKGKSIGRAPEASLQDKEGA

Row | SMILES | IC50 (class symbols) [nM] | IC50 (4 h room temperature) [nM]
1 | Cc1cc2ccc3[nH]c(C(=O)NC4CCN(CCN5CCCCCC5)CC4)cc3c2o1 [Compound 5] | 51 to 200 | –
2 | CC(C)COc1cc2c(c3[nH]c(C(=O)NC4CCN(CCN5CCCCCC5)CC4)cc13)CCC2 [Compound 16] | – | 40
3 | O=C(NC1CCN(CCN2CCCCCC2)CC1)c1cc2c3ccccc3ccc2n1Cc1ccccc1 [Compound 18] | 201 to 900 | –
4 | O=C(NC1CCN(CCN2CCCCC2)CC1)c1cc2c(cc(F)c3ccoc32)[nH]1 [Compound 13] | 201 to 900 | –
5 | COc1cc2[nH]c(C(=O)NC3CCN(CCN4CCCCCC4)CC3)cc2c2ccccc12 [Compound 11] | 201 to 900 | –
6 | CC(C)COc1cccc2[nH]c(C(=O)NC3CCN(CCN4CCCCCC4)CC3)cc12 [Compound 10] | – | 4
7 | O=C(NC1CCN(CCN2CCCCCC2)CC1)c1cc2c(ccc3cc(-c4ccccc4)oc32)[nH]1 [Compound 17] | – | 13
8 | O=C(NC1CCN(CCN2CCCCCC2)CC1)c1cc2c3c(c(F)cc2[nH]1)CCO3 [Compound 7] | 201 to 900 | –
9 | COc1cccc2[nH]c(C(=O)NC3CCN(CCN4CCCCCC4)CC3)cc12 [Compound 12] | 201 to 900 | –
10 | O=C(NC1CCN(CCN2CCCCCC2)CC1)c1cc2c(cc(F)c3ccoc32)[nH]1 [Compound 6] | 201 to 900 | –
11 | CCOc1cc2[nH]c(C(=O)NC3CCN(CCN4CCCCCC4)CC3)cc2c2ccccc12 [Compound 20] | 51 to 200 | –
12 | CC(C)c1cc2ccc3[nH]c(C(=O)N[C@H]4[C@@H]5CN(CCN6CCCCCC6)C[C@@H]54)cc3c2o1 [Compound 3] | 51 to 200 | –
13 | CC(C)c1cc2ccc3[nH]c(C(=O)NC4CC45CCN(CCN4CCCCCC4)CC5)cc3c2o1 (stereo not shown) [Compound 15] | 51 to 200 | –
14 | O=C(NC1CCN(CCN2CCCCCC2)CC1)c1cc2c(ccc3ccccc32)[nH]1 [Compound 4] | 51 to 200 | –
15 | O=C(NC1[C@H]2CN(CCN3CCCCCC3)C[C@@H]12)c1cc2c(ccc3cc(-c4ccccc4)oc32)[nH]1 (stereo partly shown) [Compound 19] | 51 to 200 | –
16 | O=C(NC1CCN(CCN2CCCCCC2)CC1)c1cc2c(cc(F)c3ccccc32)[nH]1 [Compound 9] | 51 to 200 | –
17 | O=C(NC1CCN(CCN2CCCCCC2)CC1)c1cc2c(OCc3ccccc3)cccc2[nH]1 [Compound 14] | – | 12.5
18 | Cc1c(C(=O)NC2CCN(CCN3CCCCCC3)CC2)[nH]c2ccc3ccccc3c12 [Compound 8] | 201 to 900 | –
19 | CC(C)c1cc2ccc3[nH]c(C(=O)NC4CCN(CCN5CCCCCC5)CC4)cc3c2o1 [Compound 2] | – | 5.4
